# Experimental data: publication PMC10464304, “Refined read‐out: The hUHRF1 Tandem‐Tudor domain prefers binding to histone H3 tails containing K4me1 in the context of H3K9me2/3” (Protein Science : A Publication of the Protein Society, 2023)
# Biological target: T1, hUHRF1‐TTD WT (GST‐fused, residues 126–280) (Homo sapiens, UniProt Q96T88)
# T1 construct: on previously defined borders (residues 126–280; Rothbart et al., [2012]) was N‐terminally fused to GST; made in house; host or cells: Escherichia coli
# T1 sequence (Q96T88 126-280): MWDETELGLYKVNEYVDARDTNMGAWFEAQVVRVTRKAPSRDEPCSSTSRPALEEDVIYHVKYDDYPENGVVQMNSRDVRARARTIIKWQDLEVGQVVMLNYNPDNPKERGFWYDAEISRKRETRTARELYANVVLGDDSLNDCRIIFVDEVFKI
# Assay: Equilibrium peptide binding titration by fluorescence anisotropy (FA), TTD WT
# Method: The Tandem Tudor domain of hUHRF1 (UNIPROT Q96T88) on previously defined borders (residues 126–280; Rothbart et al., [2012]) was N‐terminally fused to GST. Mutations were introduced using an updated rolling circle protocol and validated by Sanger sequencing. Proteins were overexpressed in Escherichia coli by induction with 1 mM isopropyl‐β‐D‐thiogalactopyronoside (IPTG) when OD600 reached 0.6–0.8, and the culture was continued overnight at 20°C. The cells were harvested by centrifugation for 30 min, at 4°C and 3781 g. For purification, each pellet was resuspended in 30 mL sonication buffer (500 mM KCl, 20 mM HEPES pH 7.5, 10% v/v glycerol, and 0.2 mM dithiothreitol [DTT]) and sonicated for cell lysis (Q120 Sonicator, Active Motif). After centrifugation for 1 h at 4°C and 45,850 g, the soluble protein was purified using Glutathione Agarose 4B gravitational columns and dialyzed against dialysis buffer (200 mM KCl, 20 mM HEPES, 10% v/v glycerol, pH 7.5, and 0.2 mM DTT). […] Protein concentration was determined spectroscopically by A 280 and purity was verified on SDS‐PAGE.
# Equilibrium peptide binding experiments were performed on a Jasco FP‐8300 spectrofluorometer with an automatic polarizer FDP‐837. […] Acquisitions were performed at 23°C with excitation at 493 nm and emission measured at 520 nm, slit width set to 5 nm for both, and multiple accumulations. […]
Substance,"preference for the double‐modified peptide (H3K4me1‐K9me2 versus H3K9me2 peptide, FA titrations with GST‐TTD WT (Figure S3a)) [fold]","binding of TTD WT to the peptide (in words) (Supplemental Figure 3B, control data, FA titration)"
"ARTK(me1)QTARK(me2)STGGKAPRKQ-K(FITC) [H3K4me1‐K9me2, FITC‐labeled histone H3 (1-19) peptide with K4me1 and K9me2]",> 2,–
"ARTK(me1)QTARKSTGGKAPR-K(FITC) [H3K4me1, FITC‐labeled histone H3 (1-17) peptide with K4me1]",–,weakly
